For assay [1], the target named is T1, KRAS G12C/SOS/c-Raf complex (Homo sapiens, UniProt P01116, G12C).
T1 construct: Biotinylated AviTag-KRAS G12C (amino acid region 1-185, GDP)
As to the kind of experiment: KRAS G12C/SOS/c-Raf complex formation inhibitory action (TR-FRET). The format is biochemical. The conditions noted are these: one hour at room temperature, read-out: IC50 (KRAS G12C/SOS/c-Raf complex formation inhibition). How it is done: Evaluation of KRAS G12C/SOS/c-Raf Complex Formation Inhibitory Action
Human Recombinant KRAS G12C, SOS, and c-Raf protein were used, and with respect to the complex formation of these proteins, an inhibitory action of the test compound was examined through a time-resolved fluorescence resonance energy transfer (TR-FRET) method.
Biotinylated AviTag-KRAS G12C (amino acid region 1-185, GDP) (2.5 μL; 400 nM) dissolved in assay buffer (50 mM HEPES, 150 mM NaCl, 5 mM MgCl2, 0.05% Tween 20, pH 7.4) and test compound were added in a volume of 2.5 μL from 4,000 nM to 4 nM were added to 384 well plate (Corning Inc). Son of Sevenless (SOS) (amino acid region 564-1049, 2.5 μL; 1.3 μM) and c-Raf (amino acid region 51-131) GST containing GTP (Sigma-Aldrich Co. LLC) (2.5 μL; 130 nM and 4 μM of each) were added to the above mixture, and the resultant was left to stand for one hour at room temperature. Thereafter, a mixed solution (10 μL) of LANCE Ulight-anti-GST (120 nM, PerkinElmer. Co., Ltd) and LANCE Eu-W1024 labeled Streptoavidin (100 ng/mL, PerkinElmer. Co., Ltd) was added, and a fluorescence intensity on the condition of wavelength of 620 nm and 665 nm was measured by using EnVision 2103 Multilabel Reader (PerkinElmer Co., Ltd.) under the condition of excitation wavelength of 337 nm. […] In Tables, Ex represents Example numbers described later. In addition, in Tables, Compound C represents a test compound of Example I-59 disclosed in Pamphlet of International Publication No. WO 2016/164675, and the structures of Reference Example 1 and Reference Example 2 are indicated in Table 168 described below (the same shall apply hereinafter).
On the technique in general: Time-resolved FRET reads energy transfer from a long-lived donor to a nearby acceptor.

Assay [2] has as its system ERK phosphorylation (Thr 202/Tyr 204) in NCI-H1373 cells. Kind of assay: ERK phosphorylation inhibitory action in NCI-H1373 (Cell ELISA). The format is cell-based, Human. The conditions noted are these: Homo sapiens, NCI-H1373, 2 h, read-out: IC50 (ERK phosphorylation inhibition). How it is done: Evaluation of ERK Phosphorylation Inhibitory Action with Respect to Human KRAS G12C Mutation Positive Non-Small Cell Lung Cancer Strain NCI-H1373
The ERK phosphorylation inhibitory action by the test compound was evaluated by measuring phosphorylation of 202th threonine (Thr 202) and 204th tyrosine (Tyr 204) of ERK on the downstream of the KRAS signal by Cell ELISA.
NCI-H1373 cells (ATCC, CRL-5866) were seeded in 384 well plates (Greiner bio-one) at 36 μL/well each so as to be 2×10^4 cell per well. Cell culture was performed under the conditions of temperature of 37° C. in the presence of 5% CO2 by using RPMI 1640 medium (Sigma-Aldrich Co. LLC) containing 10% fetal bovine serum (GE Life Sciences).
The next day, the test compounds (six points in a range of final concentration 1,000 nM to 0.3 nM), final concentration 1 μM of Trametinib (GlaxoSmithKline Inc.; MEK inhibitor) as a positive control, and DMSO which is a solvent of the test compound as a negative control were diluted 100-fold with fresh medium, 4 μL each was added to each well, and then cultured for 2 hours. Immediately after culturing, 30 μL of 30% glyoxal solution (Wako: 40% glyoxal diluted with Phosphate Buffered Saline (PBS; Wako)) was added to each well, and the cells were left to stand at room temperature for one hour to be fixed. Thereafter, the supernatant was removed by centrifuging the plate (110×g for 7 seconds, unless otherwise stated below under the same conditions), and 20 μL of PBS containing 0.1% Triton X-100 (Amersham Biosciences Corp.) was added to each well. After being left to stand at room temperature for 10 minutes, the supernatant was removed by centrifugation, and the same operation was repeated. Next, 20 μL of PBS containing 0.5% SDS (Invitrogen) was added to each well, and the mixture was left to stand at room temperature for 30 minutes, and then centrifuged to remove the supernatant. Subsequently, 20 μL of a blocking solution (ODYSSEY Blocking Buffer; LI-COR Biosciences) was added to each well, and left to stand at room temperature for one hour. The supernatant was removed by centrifugation, and 10 μL of a blocking solution prepared by diluting ERK (Thr 202/Tyr 204) of a phosphorylation antibody (Cell Signaling Technology, Inc.) as a primary antibody to be ½, 500 amount with respect to a stock solution was added to each well and was left to stand at 4° C. for overnight.
The next day, a reaction liquid is removed by centrifuging the plate, 20 μL of 0.05% Tween-20-containing PBS (Thermo Scientific; 20×PBS Tween-20 diluted 20-fold with ion exchanged water) was added to each well, and each well was washed by removing the supernatant by centrifugation. Washing was performed three times in total. After washing, 10 μL of a blocking solution prepared by diluting IRDye 800CW Goat anti-Rabbit IgG (LI-COR Biosciences) as a secondary antibody to be 1/1,000 amount with respect to a stock solution was added to each well and was left to stand at room temperature for one hour. The reaction liquid was removed by centrifuging the plate, and each well was washed three times with 0.05% Tween-20-containing PBS in the same manner as after primary antibody reaction. The centrifugation after the third wash was 171×g for 17 seconds. After removal of the cleaning solution, the plate was left to air dry at room temperature for three hours or more and the fluorescent signal at 800 nm was measured by Aerius (LI-COR Biosciences).
When a signal value at the time of adding DMSO was set as 0% inhibition, and a signal value at the time of adding 1 μM of Trametinib was set as 100% inhibition, a value of 50% inhibition (IC50) was calculated through Sigmoid-Emax model nonlinear regression analysis.

In assay [3] the test system is NCI-H1373 cells. As to the kind of experiment: Anchorage-independent cell proliferation inhibitory action, NCI-H1373 spheroid three-dimensional culture. The class given is cell-based, Human. Particulars: Homo sapiens, NCI-H1373, 144 h, read-out: IC50 (anchorage-independent cell proliferation inhibition). The method, then: Evaluation of Anchorage-Independent Cell Proliferation Inhibitory Action with Respect to Human KRAS G12C Mutation Positive Non-Small Cell Lung Cancer Strain NCI-H1373
An anchorage-independent cell proliferation inhibitory action by the test compound was evaluated by a spheroid three-dimensional culture.
NCI-H1373 cells were seeded in cell low adsorption U bottom 384 well plates (Prime Surface: Sumitomo Bakelite Co., Ltd.) at 36 μL/well each so as to be 5×10^2 cell per well. The cell culture was performed under the same conditions as Test example 2.
The next day, the test compounds (six points in a range of final concentration 1,000 nM to 0.3 nM) and DMSO which is a solvent of the test compound as a negative control were diluted 100-fold with fresh medium, 4 μL each was added to each well. After culturing at 37° C. in the presence of 5% CO2 for six days, 20 μL of CellTiter Glo or to CellTiter Glo 2.0 (Promega Corporation) was added to each well. After stirring for one hour at room temperature using a plate mixer (FINEPCR), an emission signal was measured with ARVO X3 (PerkinElmer Co., Ltd.).
When a signal value in a DMSO treatment was set as 0% inhibition, and a signal value in cell-free medium only was set as 100% inhibition, a value of 50% inhibition (IC50) was calculated through Sigmoid-Emax model nonlinear regression analysis.

Where [4] appears, read: NCI-H1373 cells, cultured for 2 hours, 100% = 1 μM Trametinib.
[5] abbreviates: NCI-H1373 spheroid, six days, CellTiter Glo.

Read-outs that look alike come from different tables or passages of the source.

T1 sequence (P01116 1-185 isoform P01116-2 G12C, one chain of several): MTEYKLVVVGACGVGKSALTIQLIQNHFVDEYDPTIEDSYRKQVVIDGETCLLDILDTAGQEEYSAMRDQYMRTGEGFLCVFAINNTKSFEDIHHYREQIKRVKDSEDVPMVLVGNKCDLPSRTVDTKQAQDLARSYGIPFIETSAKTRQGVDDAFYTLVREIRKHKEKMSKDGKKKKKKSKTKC

For `C=CC(=O)N1CC2(CCN(c3nc(OC4CCN(CC)CC4)nc4c(OCC(F)F)c(-c5c(C)ccc6[nH]ncc56)c(C5CC5)cc34)CC2)C1` [Example 22], the IC50 is 39 nM in assay [1], 4.6 nM in assay [2] (setting [4]) and 15 nM in assay [3] (setting [5]).
`C=CC(=O)N1CC2(CCN(c3nc(OC[C@@H]4CCCN4C)nc4c(OCC)c(-c5c(C)ccc6[nH]ncc56)c(C5CC5)cc34)CC2)C1` [Example 23]: the IC50 amounted to 39 nM in assay [1], 4.9 nM in assay [2] (setting [4]) and 5.9 nM in assay [3] (setting [5]).
For `C=CC(=O)N1CC2(CCN(c3nc(OC4CCN(CCCOC)CC4)nc4c(OCC(F)(F)F)c(-c5c(C)ccc6[nH]ncc56)c(C=C)cc34)CC2)C1` [Example 27], in that order: 40 nM, 3.3 nM and 6.5 nM.
In the same order, the values of `C=CC(=O)N1CC2(CCN(c3nc(N4CCC(N(C)C)CC4)nc4c(OCC(F)(F)F)c(-c5c(C)ccc6[nH]ncc56)c(C=C)cc34)CC2)C1` [Example 42] are 44 nM, 4.4 nM and 13 nM.
In the case of `C=CC(=O)N1CC2(CCN(c3nc(OC4CCN(C5CC5)CC4)nc4c(OCC)c(-c5c(C)ccc6[nH]ncc56)c(C5CC5)cc34)CC2)C1` [Example 43], the IC50 in assay [1] was 50 nM; in assay [2], 5 nM; in assay [3], 6 nM.
In the same order, the values of `C=CC(=O)N1CC2(CCN(c3nc(OC4CCN(CC5CCOCC5)CC4)nc4c(OCC(F)(F)F)c(-c5c(C)ccc6[nH]ncc56)c(C=C)cc34)CC2)C1` [Example 44] are 41 nM, 5.1 nM and 7.6 nM.
For `C=CC(=O)N1CC2(CCN(c3nc(OC4CCN(CCN5CCOCC5)CC4)nc4c(OCC(F)(F)F)c(-c5c(C)ccc6[nH]ncc56)c(C5CC5)cc34)CC2)C1` [Example 45], in that order: 38 nM, 5.2 nM and 7.3 nM.
Regarding `C=CC(=O)N1CC2(CCN(c3nc(OC4CCN(CC5CC5)CC4)nc4c(OCC(F)(F)F)c(-c5c(C)ccc6[nH]ncc56)c(C=C)cc34)CC2)C1` [Example 46], the IC50 came out at 48 nM in assay [1], 5.5 nM in assay [2] (setting [4]) and 8.1 nM in assay [3] (setting [5]).
For `C=CC(=O)N1CC2(CCN(c3nc(OC4CCN(CCOC(C)C)CC4)nc4c(OCC(F)(F)F)c(-c5c(C)ccc6[nH]ncc56)c(C=C)cc34)CC2)C1` [Example 47], in that order: 43 nM, 5.6 nM and 17 nM.
For `C=CC(=O)N1CC2(CCN(c3nc(OC4CCN(C)CC4C)nc4c(OCC(F)(F)F)c(-c5c(C)ccc6[nH]ncc56)c(C=C)cc34)CC2)C1` (stereo not drawn) [Example 48], in that order: 54 nM, 5.9 nM and 15 nM.
For `C=CC(=O)N1CC2(CCN(c3nc(OC4CCN(CCOC)CC4)nc4c(OCC(F)(F)F)c(-c5c(C=C)ccc6[nH]ncc56)c(C=C)cc34)CC2)C1` [Example 49], in that order: 41 nM, 2.9 nM and 4.6 nM.
In the case of `C=CC(=O)N1CC2(CCN(c3nc(OC4CCN(CCOC)CC4)nc4c(OC(F)F)c(-c5c(C)ccc6[nH]ncc56)c(C=C)cc34)CC2)C1` [Example 53], the IC50 in assay [1] is 37 nM; in assay [2] (setting [4]), 6.8 nM; in assay [3] (setting [5]), 9.8 nM.
In the same order, the values of `C=CC(=O)N1CC2(CCN(c3nc(OC4CCN(CCC#N)CC4)nc4c(OCC)c(-c5c(C)ccc6[nH]ncc56)c(C5CC5)cc34)CC2)C1` [Example 54] are 60 nM, 7.2 nM and 6.8 nM.
For `C=CC(=O)N1CC2(CCN(c3nc(OC4CCN(C(CF)CF)CC4)nc4c(OCC(F)(F)F)c(-c5c(C)ccc6[nH]ncc56)c(C=C)cc34)CC2)C1` [Example 55], in that order: 83 nM, 7.4 nM and 43 nM.
In the same order, the values of `C=CC(=O)N1CC2(CCN(c3nc(OC4CCN(C)CC4)nc4c(OCc5cccc(OC)c5)c(-c5c(C)ccc6[nH]ncc56)c(C=C)cc34)CC2)C1` [Example 57] are 52 nM, 8.2 nM and 39 nM.
Take `C=CC(=O)N1CC2(CCN(c3nc(OC4CCN(C)CC4)nc4c(OCc5ccc(C)cc5)c(-c5c(C)ccc6[nH]ncc56)c(C=C)cc34)CC2)C1` [Example 58]: the IC50 in assay [1] was found to be 57 nM; in assay [2] (setting [4]), 8.4 nM; in assay [3] (setting [5]) it was 17 nM.
For `C=CC(=O)N1CC2(CCN(c3nc(N4CCN(CCOC)CC4)nc4c(OCC(F)(F)F)c(-c5c(C)ccc6[nH]ncc56)c(C=C)cc34)CC2)C1` [Example 59], in that order: 63 nM, 8.4 nM and 26 nM.

(Values after patent publication US10774082B2, “Quinazoline compound” (Astellas Pharma Inc., priority 2017, dated 2020).)
